Data taken from US20200306222A1, “Dosing Regimen of Siponimod” (NOVARTIS AG, priority 2017, published 2020).

Assays:
[1] = multiple-dose titration clinical study in healthy subjects, daily chronotropic effects; format: in vivo, human
Experimental: S1P receptor modulators, as mentioned above, are known to cause dose dependent transient decrease in heart rate within 2-3 hours of drug intake (Legangneux et al. 2012, Hoch et al. 2014). In order to evaluate on how to best mitigate the bradyarrhythmic risk of siponimod, a multiple-dose titration clinical study in healthy subjects was run.
The primary objective of this study was to measure the daily chronotropic effects of two siponimod dose-titration regimens (from 0.25 mg to 10 mg; Dose Titration (DT) 1# and 2#, respectively) compared to daily chronotropic effects of oral siponimod 10 mg (fixed dose, once daily) and placebo over 12 days. The heart rate (HR) changes have been compared between subjects exposed to 10 mg siponimod once daily (QD) with or without 2 different up-titration schemes. The titration scheme of this study was: • DT 1#: Day 1: 0.25 mg; Day 2: 0.25 mg; Day 3: 0.25 mg; Day 4: 0.5 mg; Day 5: 1.0 mg; Day 6: 2.0 mg; Day 7: 4.0 mg; Day 8: 8.0 mg and from Day 9 to Day 12: 10.0 mg daily. • DT 2#: Day 1: 0.25 mg; Day 2: 0.25 mg; Day 3: 0.5 mg; Day 4: 0.75 mg; Day 5: 1.25 mg; Day 6: 2.0 mg; Day 7: 3.0 mg; Day 8: 5.0 mg; from Day 9 to Day 12: 10.0 mg daily.
This effect was maintained until end of treatment on Day 12. […] It was then concluded that both titration regimens effectively attenuated the initial bradycardia observed on Day 1 of treatment with siponimod 10 mg daily fixed-dose.

[2] = i.v. (bolus) cardiovascular safety studies; format: in vivo, guinea pig, rat and rabbit; conditions: similar to the effects by oral route
Description: (§1) The safety of the i.v. route in humans was supported by a local tolerance study in rabbit and cardiovascular safety studies in guinea pig, rat and rabbit using i.v. (bolus) route.

CYP2C9, CYP3A4 = conditions: humans; cited from earlier work
[3] = clinical study of siponimod pharmacokinetics in CYP2C9 poor metabolizers; format: in vivo, human
Description: In addition to the previously described benefits, the dosing regimen of the present disclosure has also the advantage to highly reduce the additional risks run by the CYP2C9 poor metabolizer.

[4] = phase II dose finding study in relapsing-remitting multiple sclerosis (CBAF312A2201); format: in vivo, human; conditions: RRMS patients
Experimental: In a phase II dose finding study of siponimod in patients with relapsing-remitting multiple sclerosis (CBAF312A2201) safety, tolerability and efficacy on magnetic resonance imaging (MRI) brain lesion parameters were evaluated. The dose response curve for the MRI-based efficacy of siponimod given orally once daily compared with placebo was determined.
The dose-response curve as defined by the primary endpoint, favored the upper part of this range, i.e. a dose in the range of siponimod 2 mg, since efficacy seemed to decrease with lower doses. Siponimod achieved positive results in a clinical trial for the treatment of RRMS patients (Selmaj et al., Lancet Neurol, 2013, 12, 756-767) and is currently being investigated in an ongoing phase III study (EXPAND) in patients with SPMS. The dose of 2 mg of siponimod was the chosen dose for this follow up phase III study.

[5] = multiple ascending dosing study (MAD study) in healthy subjects, adverse events; format: in vivo, human; conditions: maximum investigated multiple dose of 20 mg, over 28 days
Experimental: (§2) In another study in healthy subjects siponimod was administered in multiple doses, i.e. 0.3, 1, 2.5, 10 and 20 mg, over 28 days (multiple ascending dosing study, MAD study).

[6] = test system: peripheral lymphocyte counts; assay: general pharmacokinetics/pharmacodynamics of siponimod (lymphocyte counts, half-life, brain penetration); format: in vivo
Experimental: (§3) Siponimod is a second generation S1P receptor modulator that reduces peripheral lymphocyte counts approximately 4-6 hours (h) after the first dose. […] Siponimod's mode of action is believed to include S1P1-mediated prevention of effector lymphocyte recirculation from lymphatic tissue to sites of inflammation, such as the central nervous system (CNS). In addition, there may be direct beneficial effects in the CNS mediated by S1P1 and/or S1P5. […] Thus, siponimod may display additional beneficial activities in the CNS.

[7] = as above; format: in vivo; conditions: in vivo
Experimental: as §3

[8] = randomized placebo-controlled study of siponimod in intracerebral hemorrhage (ICH) patients; format: in vivo, human; conditions: compared to placebo
Description: The clinical study investigates the initial efficacy and safety of siponimod administered on top of standard-of-care compared to placebo in patients with intracerebral hemorrhage (ICH). This is a randomized, doubled-blinded, placebo-controlled, parallel group study of siponimod on top of standard-of-care for ICH, consisting of 3 epochs: Screening/Baseline, Treatment, and Follow-Up (see FIG. 1).
Patients fulfilling all eligibility criteria are randomly allocated to one of two treatment groups in a ratio of 1:1. […] These patients continue to be followed for the remainder of the assessment schedule (Table 3). i.v. Dose Titration
The siponimod i.v. dosing regimen is as follows: • Day 1: 0.25 mg over 6 hours (×2), then 0.5 mg over 6 hours, then 0.75 mg over 6 hours for a total Day 1 dose of 1.75 mg • Day 2: 1.25 mg over 6 hours, then 2 mg over 6 hours, then 2.5 mg over 6 hours (×2) for a total Day 2 dose of 8.25 mg • Days 3 through Day 7: 2.5 mg over 6 hours (×4) for a total daily dose of 10 mg. • If patient can swallow then the administration from Day 8 to Day 14 is oral.
This is a randomized, doubled-blinded, placebo-controlled, parallel group study of siponimod on top of standard-of-care for ICH, consisting of 3 epochs: Screening/Baseline, Treatment, and Follow-Up (see FIG. 1).
Patients are assigned to one of the following 2 treatment arms in a ratio of 1:1. • Study treatments are defined as: • Siponimod • Day 1: i.v. 0.25 mg over 6 hours (×2), then 0.5 mg over 6 hours, then 0.75 mg over 6 hours for a total Day 1 dose of 1.75 mg • Day 2: i.v. 1.25 mg over 6 hours, then 2 mg over 6 hours, then 2.5 mg over 6 hours (×2) for a total Day 2 dose of 8.25 mg • Days 3 through 7: i.v. 2.5 mg over 6 hours (×4) for a total daily dose of 10 mg • Days 8 through 14; 10 mg p.o. QD

[9] = siponimod single dose study (SAD study) in healthy volunteers; format: in vivo; conditions: healthy subjects
[10] = i.v. versus oral absolute bioavailability study in healthy subjects (CBAF312A2126), PK and PD; format: in vivo, human
Experimental: A comparison of bradyarrhythmic effects (HR, AVB, SP) of a 1 mg oral dose from previous studies and a 1 mg/day i.v. dose infused over 24 h in healthy subjects supported the hypothesis that such effects are related to the slope of the concentration-time curve.
In said study with siponimod administered intravenously, PK and PD were determined. […] This finding was consistent with previous oral administrations of 0.25 mg (starting dose of the oral initial period dosing regimen).
as §1

[11] = test system: Absolute Lymphocyte Count (ALC); assay: multiple ascending dosing study in healthy volunteers, decline of Absolute Lymphocyte Count; format: in vivo, human
Experimental: as §2

CCc1cc(/C(C)=N/OCc2ccc(C3CCCCC3)c(C(F)(F)F)c2)ccc1CN1CC(C(=O)O)C1 [siponimod, 1-{4-[(1E)-N-{[4-cyclohexyl-3-(trifluoromethyl)benzyl]oxy}ethanimidoyl]-2-ethylbenzyl}-3-azetidine carboxylic acid]
reduction in heart rate vs. placebo ([1]; Day 1, either titration regimen): no statistically significant reduction in heart rate vs. placebo | reduction in HR ([1]; Days 3 to 7, DT 1# and DT 2#): minor reductions in HR | heart rates versus placebo ([1]; by Day 9 until Day 12, both titration regimens): comparable to placebo | clinically significant bradycardia or AV conduction effects ([1]; dose titration regimens DT 1# and DT 2# (0.25 mg to 10 mg), oral, 12 days): Neither DT 1# nor DT 2# resulted in clinically significant bradycardia or AV conduction effects | heart rates versus placebo ([1]; non-titration regimen, 10 mg fixed dose once daily, throughout the study): considerable separation from placebo | bradyarrhythmia ([1]; starting dose of 0.25 mg of the 2 DT regimens): not associated with bradyarrhythmia | cardiovascular effects [2]: Cmax-related transient cardiovascular effects | metabolizing enzymes (CYP2C9, CYP3A4): mainly by CYP2C9, followed by CYP3A4 | Tmax in poor versus extensive metabolizers ([3]; poor and extensive metabolizers): comparable | Cmax in poor versus extensive metabolizers ([3]; poor metabolizers): only slightly greater | AUC fold versus extensive metabolizers (CYP2C9*1*1) ([3]; poor metabolizers (CYP2C9*2*3 and CYP2C9*3*3 genotypes)): approximately 2 fold | MRI-based efficacy ([4]; 1.25 mg to 2 mg dose range): close to maximal efficacy | safety profile ([4]; 1.25 mg to 2 mg dose range): good safety profile | MRI-based efficacy ([4]; 10 mg orally once daily): little additional efficacy compared to 2 mg | safety profile ([4]; 10 mg orally once daily): worse safety profile | only relevant adverse event [5]: symptomatic bradycardia | time to reduction of peripheral lymphocyte counts ([6]; after the first dose): 4 to 6 h (h) | recovery of the baseline lymphocyte counts ([6]; after treatment withdrawal): within a week | blood brain barrier crossing ([6]; in vivo): readily crosses the blood brain barrier | half-life [7]: ~30 h | global functioning, modified Rankin Scale (mRS) score ([8]; Day 90 after ICH, 7 days i.v. with titration followed by 7 days p.o.): improves global functioning | development of perihematomal edema (PHE) ([8]; between 24 hours and 14 days after initiation of treatment): decreases the development of perihematomal edema (PHE) | functional mobility ([8]; two week treatment): improves functional mobility of the affected body parts | safety and tolerability ([9]; 25 mg single dose): favorable safety and tolerability profile | single maximum tolerated dose (single MTD) ([9]; single dose): 25 mg | pharmacokinetics (PK) linearity ([10]; human, in vivo): dose linear and time-independent pharmacokinetics | Tmax ([10]; human, in vivo, 0.25 mg, oral, after dosing, read-out: median oral Tmax): 8 h | magnitude of PD (ALC) effects %Emax, i.v. versus oral ([10]; i.v. 0.25 mg over 3 hour and 1 mg over 24 hours): comparable to the effects after oral doses at the same dose levels | median i.v. Tmax ([10]; i.v. infusion 0.25 mg over 3 hours and 1 mg over 24 hours): at the end of the 3 hour and 24 hour infusions | cardiac safety profile ([10]; i.v. infusion 0.25 mg over 3 hours and 1 mg over 24 hours (4×0.25 mg/6 hours)): excellent cardiac safety profile | geometric mean oral Cmax relative to mean i.v. Cmax (lower) ([10]; oral versus i.v.): -48% | % Emax0-12 h from Day 1 pre-dose ([11]; 0.3 mg dose group): 41.9% | % Emax0-12 h from time-matched Day −1 ([11]; 0.3 mg dose group): 47.8% | % Emax0-12 h from Day 1 pre-dose ([11]; 1 mg dose group): 71.3% | % Emax0-12 h from time-matched Day −1 ([11]; 1 mg dose group): 73.8% | ALC decrease, chronic response ([11]; 2.5 mg): ~70% | % Emax0-12 h from Day 1 pre-dose ([11]; 2.5 mg dose group): 66.9% | % Emax0-12 h from time-matched Day −1 ([11]; 2.5 mg dose group): 67.5% | ALC decrease, chronic response (plateau) ([11]; 10 mg): about 80% | % Emax0-12 h from Day 1 pre-dose ([11]; 10 mg dose group): 83.7% | % Emax0-12 h from time-matched Day −1 ([11]; 10 mg dose group): 86.1% | % Emax0-12 h from Day 1 pre-dose ([11]; 20 mg dose group): 84.8% | % Emax0-12 h from time-matched Day −1 ([11]; 20 mg dose group): 86.5% | acute ALC response ([11]; Day 1 of treatment, between 0.3 mg and 10 mg dose): dose-dependent decline of ALC
